Like-named read-outs stand apart in the source and are kept apart here.
What was measured:
[1] = Lipophilicity, n-octanol/PBS distribution coefficient logD7.4; type: physicochemical; conditions: 177Lu-labeled peptide; n-octanol/PBS (1/1), n ≥ 5
Description: For determination of lipophilicity, the respective ^177Lu-Labeled peptide precursor (~ 1 MBq, 10 µL in 0.04 M HCl) was added to a solution of n-octanol/PBS (1/1, v/v, 1 mL) and vigourously mixed for 3 min at room temperature (n ≥ 5). Afterwards both phases were seperated using a Biofuge 15 centrifuge (Heraus Sepatech GmbH, Osterode, Germany) at 9,000 rpm for 5 min. 200 µL aliquots of both layers were collected separately, measured in a γ-counter (Perkin Elmer, Waltham, MA, USA) and the logD7.4 value was obtained.

[2] = target: T1, Human serum albumin (HSA) (Homo sapiens, UniProt P02768); assay: Human serum albumin binding via high performance affinity chromatography (HPAC); type: in vitro ADME; conditions: Chiralpak HSA column, n = 1
T1 construct: purchased Daicel, Tokyo, Japan H13H-2433
T1 sequence (P02768 25-609): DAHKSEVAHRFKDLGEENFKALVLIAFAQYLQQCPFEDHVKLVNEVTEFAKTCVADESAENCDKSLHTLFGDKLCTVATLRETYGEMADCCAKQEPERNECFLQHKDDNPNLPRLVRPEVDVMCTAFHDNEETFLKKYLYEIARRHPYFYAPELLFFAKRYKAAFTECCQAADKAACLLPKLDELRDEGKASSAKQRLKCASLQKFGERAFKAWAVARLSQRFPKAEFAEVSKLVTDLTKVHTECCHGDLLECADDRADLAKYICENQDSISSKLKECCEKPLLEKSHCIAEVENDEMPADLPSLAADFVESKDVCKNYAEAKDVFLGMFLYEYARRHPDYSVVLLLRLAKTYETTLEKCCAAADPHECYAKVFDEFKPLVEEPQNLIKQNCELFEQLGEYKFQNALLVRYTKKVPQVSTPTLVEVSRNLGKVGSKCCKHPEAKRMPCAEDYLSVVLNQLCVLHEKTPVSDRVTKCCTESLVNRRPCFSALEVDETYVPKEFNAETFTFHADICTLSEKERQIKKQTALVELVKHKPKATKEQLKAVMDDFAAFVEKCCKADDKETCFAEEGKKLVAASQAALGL
Description: Human serum albumin (HSA) binding was determined via high performance affinity chromatography (HPAC), according to previously published protocols. Human serum albumin interaction was calculated according to the retention time (n = 1) of our compounds on a Chiralpak HSA column in dependence of nine reference compounds with known HSA interaction.
Human serum albumin binding was determined via high performance affinity chromatography. Therefore, a Chiralpak HSA column (50 × 3 mm, 5 µm, H13H-2433, Daicel, Tokyo, Japan) was used at a constant flow rate of 0.5 ml/min at room temperature. Mobile phase A consisted of a freshly prepared aqueous solution of NH4OAc (pH = 6.9, 50 mM) and mobile phase B of isopropanol. Calibration of the column was performed daily prior to experiments, by determining the retention times of nine reference substances displaying a HSA binding from 13 to 99%. HPLC gradient for all compounds tested was 100% A (0 to 3 min), followed by 80% A (3 to 40 min). All substances tested, were dissolved in a mixture of A/B (0.5 mg/mL, 1:1, v/v). OriginPro 2016G software (Northampton, United States) was used for non-linear regression and data evaluation.

[3] = Biodistribution at 24 h p.i. in AR42J tumor-bearing CB17-SCID mice; type: in vivo; conditions: mouse, 100 pmol, 100 pmol; for tissue to tissue ratio at 24 h: both sexes, CB17-SCID, total radioactivity
Description: (§1) Animal experiments were carried out according to the general animal welfare regulations in Germany (German animal protection act, in the edition of the announcement, dated 18 May 2006, as amended by Article 280 of 19 June 2020, approval no. ROB-55.2–1-2532.Vet_02-18–109 by the General Administration of Upper Bavaria) and the institutional guidelines for the care and use of animals. Therefore, CB17-SCID mice of both genders and aged 2–4 months (Charles River Laboratories International Inc., Sulzfeld, Germany) were used. After arrival at the in-house facilities, mice were allowed to acclimate for a minimum of one week before inoculation of AR42J cells. AR42J cells (6.0 × 10^6 cells per 200 μL) were suspended in a mixture (v/v = 1/1) of nutrient medium and Cultrex® Basement Membrane Matrix Type 3 (Trevigen Inc., Gaithersburg, MD, USA) and inoculated subcutaneously onto the right shoulder of CB17-SCID mice according to a previously reported protocol. Animals were excluded from the study when reaching one of the following endpoints: a weight loss higher than 20%, a tumor size above 1500 mm^3, an ulceration of the tumor, respiratory distress or change of behavior [8]. None of these criteria applied to any animal from the experiment. Neither randomization nor blinding was applied in the allocation of the experiments. Health status of the animals is specific pathogen free according to Federation of European Laboratory Animal Science Associations recommendation.
(§2) Biodistribution studies (n = 4) and µSPECT/CT imaging (n = 1) at 24 h p.i. were carried out as previously published. For all in vivo experiments, approximately 2–3 MBq (100 pmol) of the respective ^177Lu-labeled peptide were administered.
(§3) Table S2. Biodistribution data of [^177Lu]Lu-DOTA-rhCCK-70 and [^177Lu]Lu-DOTA-rhCCK-91 in selected organs at 24 h p.i. in AR42J tumor-bearing CB17-SCID mice (100 pmol each). Data are expressed as %ID/g, mean ± SD.
(§4) Table S3. Tumor-to-background ratios of [^177Lu]Lu-DOTA-rhCCK-70 and [^177Lu]Lu-DOTA-rhCCK-91 in selected organs at 24 h p.i. in AR42J tumor-bearing CB17-SCID mice (100 pmol each). Data are expressed as %ID/g, mean ± SD.

[4] = test system: AR42J tumor-bearing CB17-SCID mice; assay: as above; type: in vivo; conditions: for reduction of kidney accumulation and retention compared to [177Lu]Lu-DOTA-rhCCK-18: p < 0.0001
Description: as §1, §2, §3, §4

[5] = tumor/adrenal, n=4, Table S3, read-out: Tumor-to-background ratio, Adrenal
[6] = tumor/blood, n=4, Table S3, read-out: Tumor-to-background ratio, Blood
[7] = tumor/bone, n=4, Table S3, read-out: Tumor-to-background ratio, Bone
[8] = tumor/heart, n=4, Table S3, read-out: Tumor-to-background ratio, Heart
[9] = tumor/intestine, n=4, Table S3, read-out: Tumor-to-background ratio, Intestine
[10] = tumor/kidney, n=4, Table S3, read-out: Tumor-to-background ratio, Kidney
[11] = tumor/liver, n=4, Table S3, read-out: Tumor-to-background ratio, Liver
[12] = tumor/lung, n=4, Table S3, read-out: Tumor-to-background ratio, Lung
[13] = tumor/muscle, n=4, Table S3, read-out: Tumor-to-background ratio, Muscle
[14] = tumor/pancreas, n=4, Table S3, read-out: Tumor-to-background ratio, Pancreas
[15] = tumor/spleen, n=4, Table S3, read-out: Tumor-to-background ratio, Spleen
[16] = tumor/stomach, n=4, Table S3, read-out: Tumor-to-background ratio, Stomach
[17] = adrenal, n=4, mean ± SD, read-out: Biodistribution, Adrenal
[18] = blood, n=4, mean ± SD, read-out: Biodistribution, Blood
[19] = bone, n=4, mean ± SD, read-out: Biodistribution, Bone
[20] = heart, n=4, mean ± SD, read-out: Biodistribution, Heart
[21] = intestine, n=4, mean ± SD, read-out: Biodistribution, Intestine
[22] = kidney, n=4, mean ± SD, read-out: Biodistribution, Kidney
[23] = liver, n=4, mean ± SD, read-out: Biodistribution, Liver
[24] = lung, n=4, mean ± SD, read-out: Biodistribution, Lung
[25] = muscle, n=4, mean ± SD, read-out: Biodistribution, Muscle
[26] = pancreas, n=4, mean ± SD, read-out: Biodistribution, Pancreas
[27] = spleen, n=4, mean ± SD, read-out: Biodistribution, Spleen
[28] = stomach, n=4, mean ± SD, read-out: Biodistribution, Stomach
[29] = tumor (AR42J xenograft), n=4, mean ± SD, read-out: Biodistribution, Tumor (AR42J xenograft)

Row | Structure (SMILES) | logD [1] | HSA binding [2] | tissue to tissue ratio at 24 h [3, 5] | tissue to tissue ratio at 24 h [3, 6] | tissue to tissue ratio at 24 h [3, 7] | tissue to tissue ratio at 24 h [3, 8] | tissue to tissue ratio at 24 h [3, 9] | tissue to tissue ratio at 24 h [3, 10] | tissue to tissue ratio at 24 h [3, 11] | tissue to tissue ratio at 24 h [3, 12] | tissue to tissue ratio at 24 h [3, 13] | tissue to tissue ratio at 24 h [3, 14] | tissue to tissue ratio at 24 h [3, 15] | tissue to tissue ratio at 24 h [3, 16] | tissue uptake at 24 h [3, 17] | tissue uptake at 24 h [3, 18] | tissue uptake at 24 h [3, 19] | tissue uptake at 24 h [3, 20] | tissue uptake at 24 h [3, 21] | tissue uptake at 24 h [3, 22] | also measured
1 | CCCC[C@@H](C(=O)N[C@@H](CC(=O)O)C(=O)N[C@@H](Cc1cccc2ccccc12)C(N)=O)N(C)C(=O)[C@H](Cc1c[nH]c2ccccc12)NC(=O)CCOCCOCCOCCOCCNC(=O)CC[C@@H](NC(=O)CCOCCOCCOCCOCCOCCOCCOCCOCCNC(=O)CC[C@@H](NC(=O)[C@@H](CNC(=O)c1ccc([Si](F)(C(C)(C)C)C(C)(C)C)cc1)NC(=O)CN1CCN(CC(=O)O)CCN(CC(=O)O)CCN(CC(=O)O)CC1)C(=O)O)C(=O)O [[^nat/177Lu]Lu-DOTA-rhCCK-70, DOTA-D-Dap(p-SiFA)-D-γ-Glu-(PEG)7-D-γ-Glu-(PEG)3-Trp-(N-Me)Nle-Asp-1-Nal-NH2, metal not drawn] | -1.67 | 89.3% | 20.5 ± 8.5 | 143 ± 49 | 9.48 ± 8.05 | 55.4 ± 13.4 | 27.4 ± 7.7 | 1.44 ± 0.12 | 4.26 ± 1.7 | 33.4 ± 8.53 | 276 ± 189 | 55.2 ± 19.6 | 6.95 ± 2.17 | 1.97 ± 0.24 | 0.55 ± 0.46 %ID/g | 0.1 ± 0.04 %ID/g | 2.4 ± 1.5 %ID/g | 0.23 ± 0.05 %ID/g | 0.48 ± 0.13 %ID/g | 8.4 ± 0.8 %ID/g | tissue to tissue ratio at 24 h ([3]; tumor/kidney, read-out: tumor-to-kidney ratio): 1.4 ± 0.1; tissue to tissue ratio at 24 h ([3]; tumor/stomach, read-out: tumor-to-stomach ratio): 2 ± 0.2; tissue uptake at 24 h ([3]; bone, depending on 177Lu-batch, read-out: activity levels in the bone, range observed (correlating with free lutetium-177)): 0.5 to 4.3 %ID/g; tissue uptake at 24 h [3, 23]: 3.5 ± 1.7 %ID/g; tissue uptake at 24 h [3, 24]: 0.39 ± 0.12 %ID/g; tissue uptake at 24 h [3, 25]: 0.06 ± 0.03 %ID/g; tissue uptake at 24 h [3, 26]: 0.24 ± 0.08 %ID/g; tissue uptake at 24 h [3, 27]: 1.9 ± 0.6 %ID/g; tissue uptake at 24 h [3, 28]: 6.2 ± 0.9 %ID/g; tissue uptake at 24 h [3, 29]: 12 ± 0.8 %ID/g; decrease of activity levels in the tumor compared to [177Lu]Lu-DOTA-rhCCK-18 [4]: 2 fold; tumor-to-kidney ratio [4]: 1.45 ± 0.12; Biodistribution, Kidney ([4]; 100 pmol, n=4, mean ± SD): 8.37 ± 0.78 %ID/g; Biodistribution, Liver ([4]; 100 pmol, n=4, mean ± SD): 3.48 ± 1.66 %ID/g; Biodistribution, Spleen ([4]; 100 pmol, n=4, mean ± SD): 1.92 ± 0.60 %ID/g; Biodistribution, Stomach ([4]; 100 pmol, n=4, mean ± SD): 6.21 ± 0.85 %ID/g; reduction of kidney accumulation and retention compared to [177Lu]Lu-DOTA-rhCCK-18 [4]: 16 fold
2 | CCCC[C@@H](C(=O)N[C@@H](CC(=O)O)C(=O)N[C@@H](Cc1cccc2ccccc12)C(N)=O)N(C)C(=O)[C@H](Cc1c[nH]c2ccccc12)NC(=O)CCOCCOCCOCCOCCNC(=O)CC[C@@H](NC(=O)CCOCCOCCOCCOCCOCCNC(=O)CC[C@@H](NC(=O)[C@@H](CNC(=O)C[N+](C)(C)Cc1ccc([Si](F)(C(C)(C)C)C(C)(C)C)cc1)NC(=O)CN1CCN(CC(=O)O)CCN(CC(=O)O)CCN(CC(=O)O)CC1)C(=O)O)C(=O)O [[^nat/177Lu]Lu-DOTA-rhCCK-91, DOTA-D-Dap(SiFAlin)-D-γ-Glu-(PEG)4-D-γ-Glu-(PEG)3-Trp-(N-Me)Nle-Asp-1-Nal-NH2, metal not drawn] | -1.66 ± 0.08 | 90.0% | 17.3 ± 1.9 | 185 ± 32 | 11.8 ± 0.72 | 25.3 ± 5.2 | 12.3 ± 5.1 | 1.14 ± 0.12 | 3.8 ± 0.37 | 29.3 ± 4.2 | 147 ± 65 | 8.98 ± 2.1 | 7.35 ± 0.75 | 1.95 ± 0.27 | 0.44 ± 0.09 %ID/g | 0.04 ± 0.01 %ID/g | 0.64 ± 0.12 %ID/g | 0.31 ± 0.07 %ID/g | 0.68 ± 0.16 %ID/g | 6.6 ± 0.5 %ID/g | tissue uptake at 24 h [3, 23]: 2 ± 0.1 %ID/g; tissue uptake at 24 h [3, 24]: 0.26 ± 0.05 %ID/g; tissue uptake at 24 h [3, 25]: 0.06 ± 0.01 %ID/g; tissue uptake at 24 h [3, 26]: 0.9 ± 0.32 %ID/g; tissue uptake at 24 h [3, 27]: 1 ± 0.3 %ID/g; tissue uptake at 24 h [3, 28]: 4 ± 1.2 %ID/g; tissue uptake at 24 h [3, 29]: 7.5 ± 1 %ID/g; decrease of activity levels in the tumor compared to [177Lu]Lu-DOTA-rhCCK-18 [4]: three; Biodistribution, Kidney ([4]; 100 pmol, n=4, mean ± SD): 6.58 ± 0.53 %ID/g; Biodistribution, Liver ([4]; 100 pmol, n=4, mean ± SD): 1.96 ± 0.08 %ID/g; Biodistribution, Spleen ([4]; 100 pmol, n=4, mean ± SD): 1.04 ± 0.26 %ID/g; Biodistribution, Stomach ([4]; 100 pmol, n=4, mean ± SD): 3.99 ± 1.16 %ID/g; Biodistribution, Tumor (AR42J xenograft) ([4]; 100 pmol, n=4, mean ± SD): 7.47 ± 1.01 %ID/g; reduction of kidney accumulation and retention compared to [177Lu]Lu-DOTA-rhCCK-18 [4]: 20 fold

Reference: paper PMC10907560, “Significant reduction of activity retention in the kidneys via optimized linker sequences in radiohybrid-based minigastrin analogs” (EJNMMI Research, 2024)
